The test system of data set [1] is GAS5. The experiment in a line: Binding of side-chain derivatives to GAS5 (preliminary data).
In data set [2] the test system is HT22 cells. The settings on record: mouse.
For a further data set, the system named is GAS5 lncRNA. The data set can be described thus: γ-AApeptide OBOC combinatorial library screen with fluorescein tagged GAS5 oligonucleotide, hits validated in vitro. It is filed as binding. The settings on record: fluorescein tagged GAS5 oligonucleotide probe, tRNA as control. The source says:
The interaction between UPF1 and GAS5 was disrupted using a γ-AApeptide based one-bead-one-compound (OBOC) combinatorial library (Wu H, Li Y, Bai G, Niu Y, Qiao Q, Tipton J D, Cao C, Cai J. gamma-AApeptide-based small-molecule ligands that inhibit Abeta aggregation. Chemical communications. 2014; 50(40):5206-8. doi: 10.1039/c3cc46685j. PubMed PMID: 24158240). The γ-AApeptide is a peptidomimetic with side chains for chemical diversity and are resistant to proteolytic cleavage. To screen the compound library, a probe that contained a fluorescein tagged oligonucleotide was synthesized. The probe spanned 30 nucleotides on either side of the UAA sequences on GAS5 (FIG. 13) The fluorescein was attached to the 5′end (beginning of oligonucleotide probe sequence). The nucleotide sequence within the GAS5 IncRNA that the oligonucleotide probe binds to can be about 100% identical to […] (SEQ ID NO: 4), which is nucleotides 541 to 651 of SEQ ID NO: 1. The underlined regions indicate the UAA that is the target regions. As such, the oligonucleotide probe was designed to flank both sides of these target regions.
The length of oligonucleotide was required to maintain stem loop structure to specifically bind to GAS5. Further, we modeled the oligonucleotide (RNAfold software) to evaluate its folding and verified absence of any unwanted secondary structures. The backbone was modified by 2′-MOE (2′-O-methoxyethylribose), which protects it from degradation and a fluoroscein tag was attached to the 5′end to aid in screening. The oligonucleotide probe was used to screen 160,000 molecules in the combinatorial library using tRNA as control (as tRNA has similar stem loop secondary structures). […] The compound having a structure according to Formula 3 was determined to have a chemical formula of C68H92N10O9S, a mass of about 1224.6769, and a molecular weight of 1225.6050. The compound having a structure according to Formula 14 was determined to have a chemical formula of C63H85N9O13S, a mass of about 1207.5988, and a molecular weight of 1208.4830. […]

The test system of data set [3] is HT22 cells. The data set can be described thus: Toxicity of side-chain derivatives to HT22 cells (preliminary data).
Data set [4] relates to aged normal and aged diabetic (db/db) mice. The experiment in a line: Radial arm water maze (RAWM) after intranasal insulin in aged normal and db/db mice. The format is in vivo, mouse. Particulars: 1 unit/ml daily for 3 weeks, both normal aged and aged diabetic mice. The source says:
(§1) Diabetes increases the risk for impaired cognitive function and dementia by 47%. Patients with T2DM have cognitive deficits affecting verbal and nonverbal memory, attention, information processing speed, and executive function. To assess the cognitive function with respect to insulin resistance in vivo, aged diabetic mice BKS.Cg-+ Lepr^db/+ Lepr^db/OlaHsd (Older db/db mice from Harlan were used; 11 months—as this mouse model has lower life span) along with their normal age-matched controls. We measured the levels of GAS5 and insulin receptor (IR) in young (4 months) and db/db mice along with their age-matched control mice. The hippocampi of the mice were collected and SYBR Green qPCR was performed. […] Intranasal insulin delivery is a noninvasive method that bypasses the blood-brain barrier and delivers insulin to the brain and the spinal cord. Biologically effective concentrations of insulin can be achieved without systemic side effects.
(§2) After intranasal administration, insulin and peptide analogues begin to accumulate in the CSF within 30 minutes. Intranasal insulin directly improves learning and memory and has no effect on circulating blood glucose levels. Thus, the effects may reflect activation of neuronal insulin signaling pathways. […] Errors (incorrect arm choices) and escape latency were recorded for each daily trial (FIGS. 3B-3C).

The test system of the next data set is insulin receptor (IR). The data set can be described thus: Insulin receptor levels after intranasal insulin treatment. The format is in vivo, mouse.
Source text: as §1, §2

A further data set relates to neurons. The experiment in a line: Immunohistochemistry after insulin treatment. The format is in vivo, mouse. The method, then: FIGS. 4A-4B show panels fluorescent microscopic images of the results from Immuno histochemical analysis post insulin treatment in neron cells. The bar in the images of the panel of FIG. 4B is 20 μm.
After intranasal administration, insulin and peptide analogues begin to accumulate in the CSF within 30 minutes. Intranasal insulin directly improves learning and memory and has no effect on circulating blood glucose levels. Thus, the effects may reflect activation of neuronal insulin signaling pathways. The age-matched control and db/db mice cohorts were treated with intranasal insulin (1 unit/ml, daily for 3 weeks) and the radial arm water maze (RAWM) was used for cognitive assessment. Errors (incorrect arm choices) and escape latency were recorded for each daily trial (FIGS. 3B-3C).

The test system of data set [5] is GAS5. The data set can be described thus: GAS5 levels in NDM adipocytes after insulin, real-time qPCR. The settings on record: about 10 nM, 24 hours. It is filed as cell-based, human. The text has this: Depletion of GAS5 decreases glucose uptake: Adipose tissue is the primary target for insulin-mediated glucose uptake. […] To maintain reproducibility over a larger number of experiments, adipose stem cells derived from normal or diabetic patients were purchased from Zenbio (BMI 20-24, Nondiabetic HbA1C 5.9 (hereafter referred as NDM); T2DM HbA1c 8.5 (hereafter referred as DM)). The adipose stem cells (ASC) were differentiated in vitro to mature adipocytes and used in experiments. GAS5 siRNA (10 nM, Ambion 332778, validated; scrambled siRNA as control) was transfected in NDM pre-adipocytes for 48 h, differentiated to mature NDM adipocytes for 8 days and knockdown confirmed by GAS5 SYBR Green qPCR. We determined the effect of GAS5 depletion on glucose uptake by NDM adipocytes. Cells were serum starved, 10 nM insulin was added to cells for 30 minutes and [^3H]-deoxy-2-D-Glucose uptake was measured. Results indicated a decrease in glucose uptake in GAS5 depleted NDM adipocytes ***p<0.001, highly significant using two-tailed students t-test.
About 10 nM insulin was added to NDM adipocytes for 24 hours. […] Separately, GAS5 was depleted in NDM adipocytes using GAS5 siRNA as described above to evaluate the insulin receptor mediated PI3K→AKT pathway. Whole cell lysates were evaluated by western blot analysis using antibodies against p-AKT and total AKT.
In general terms: In qPCR the cycle at which signal appears reflects the starting amount.

For data set [6] the following is noted: after intranasal administration; cited from earlier work.

Like-named read-outs stand apart in the source and are kept apart here. A value given as a limit tells only on which side of the number the result lay.

For `NCCCC[C@H]1CN(C(=O)CCCN)CC(=O)N[C@@H](CCC(=O)O)CN(CC(N)=O)C(=O)CCSCc2ccc(cc2)C(=O)N[C@@H](CCCCN)CN(C(=O)CCC(=O)O)CC(=O)N[C@@H](Cc2ccccc2)CN(C(=O)CCc2ccccc2)CC(=O)N1` [YS-D-70], the “binding to GAS5” value with GAS5 [1] is listed as “bound efficiently to GAS5”. For the same molecule, in the data set on HT22 cells [2], the “toxicity to HT22 cells” value was “not toxic to HT22 cells”.

For `C[C@H]1CN(C(=O)CC2CC2)CC(=O)N[C@@H](CCC(=O)O)CN(C(=O)CCC2CCCCC2)CC(=O)N[C@@H](Cc2ccccc2)CN(CC(N)=O)C(=O)CCSCc2ccc(cc2)C(=O)N[C@@H](Cc2ccccc2)CN(C(=O)CCC(=O)O)CC(=O)N1` [Formula 14], in the data set on GAS5 lncRNA, the “ability to bind GAS5 (identified and validated from library screen)” value is “able to bind GAS5”.

`CC(C)C[C@H]1CN(CC(N)=O)C(=O)CCSCc2ccc(cc2)C(=O)N[C@@H](C)CN(C(=O)CCc2ccccc2)CC(=O)N[C@@H](CC(C)C)CN(C(=O)CC2CC2)CC(=O)N[C@@H](CCCCN)CN(C(=O)CCC2CCCCC2)CC(=O)N1` [YS-D-66]: the “binding to GAS5” value with GAS5 [1] is “bound efficiently to GAS5”. In addition, the “toxicity to HT22 cells” value in the data set on HT22 cells [3] was “not toxic to HT22 cells”.

On to `CC(C)C[C@H]1CN(C(=O)CCc2ccccc2)CC(=O)N[C@@H](Cc2ccccc2)CN(C(=O)CC2CC2)CC(=O)N[C@@H](Cc2ccccc2)CN(CC(N)=O)C(=O)CCSCc2ccc(cc2)C(=O)N[C@@H](CCCCN)CN(C(=O)CCc2ccccc2)CC(=O)N1` [YS-D-68], for which the “binding to GAS5” value in the data set with GAS5 [1] is listed as “bound efficiently to GAS5”. Moreover, in the data set with HT22 cells [3], the “toxicity to HT22 cells” value is “not toxic to HT22 cells”.

Regarding `CC(C)C[C@H]1CN(C(=O)CCc2ccccc2)CC(=O)N[C@@H](Cc2ccccc2)CN(C(=O)CC2CC2)CC(=O)N[C@@H](Cc2ccccc2)CN(CC(N)=O)C(=O)CCSCc2ccc(cc2)C(=O)N[C@@H](Cc2ccccc2)CN(C(=O)CCCN)CC(=O)N1` [YS-D-69], in the data set with GAS5 [1], the “binding to GAS5” value is recorded as “bound efficiently to GAS5”. Besides, the “toxicity to HT22 cells” value in the data set on HT22 cells [3] is given as “not toxic to HT22 cells”.

With insulin, the “cognitive performance in RAWM (errors, escape latency)” value in data set [4] is reported as “improved the cognitive performance”. Moreover, the “levels of IR” value in the data set with insulin receptor (IR) is given as “did not increase”. Further, in the data set on neurons, the neurogenesis result was “increased” and the neuronal proliferation result was “increased”. The “GAS5 levels in NDM adipocytes” value in the data set on GAS5 [5] is “increase in GAS5 levels”. For the same molecule, the “time to begin to accumulate in the CSF” value in data set [6] is at most 30 min.

The record behind these values is patent US11214835B1, “Methods and compositions for diagnosis and management of neurodegerative diseases” (UNIVERSITY OF SOUTH FLORIDA, priority 2017, dated 2022).
